From US6073962A (priority 1994, dated 2000)

Test system: mouse
Settings: in vivo, po

Structure (SMILES) | Death rate of 30 mg adm. | Death rate of 300 mg adm. | Death rate of 2000 mg adm. | LD50 level
NN.NN.O=[N+]([O-])[O-].O=[N+]([O-])[O-].[Zn+2] [Ex. 1, Zn.2(N2 H4).2(NO3)] | 0/10 | 0/10 | 10/10 | > 300 mg/kg
NNC(=O)NN.NNC(=O)NN.NNC(=O)NN.O=[N+]([O-])[O-].O=[N+]([O-])[O-].[Zn+2] [Ex. 25, Zn.3(CDH).2(NO3)] | 0/10 | 3/10 | 10/10 | > 300
